Results: patent US20200239561A1, “NODAL REGULATION OF CANCER DRUG RESISTANCE GENE” (TaiRx Inc., priority 2019, published 2020)

Columns and labels:
Nodal protein [1] = assay: Western blot of Nodal protein (ProNodal) in acute lymphoblastic leukemia cell line REH; assay type: cell-based; conditions: REH cells, 72 hr treatment
Source text: Treatment of the cells for 72 hr with CVM-1125 reduced Nodal protein expression by 38%, while under the same treatment regimen the drug Ara-c reduced Nodal protein expression by 51%, Ws65 reduced Nodal protein by 90%, a combination of CVM-1125 plus WS65 reduced Nodal protein by 75% and Ara-c plus WS65 reduced Nodal protein by 69%.

Nodal protein [2] = assay: Western blot of Nodal protein expression in SK-MEL28 melanoma cells; assay type: cell-based, human; conditions: 72 hours treatment
Protocol: (§1) Human metastatic melanoma cell lines C8161, SK-MEL28 and A375SM-L1 and melanocytes were treated with anti-Nodal or anti-ABCA1 antibodies followed by secondary fluorescent antibodies. (A) Cells were viewed using a Zeiss Axioskop 2 microscope and photomicrographs taken comparing immunofluorescence staining of the melanoma cells versus melanocytes (negative control) and cells treated with secondary antibody only (antibody control; magnification 63×). All three aggressive melanoma cell lines express both Nodal and ABCA1 proteins. (B) Furthermore, whole cell protein lysates were prepared from the C8161, SK-MEL28 and A375SM-L1 cells and Western blot analysis verified the expression of both Nodal and ABCA1 proteins at their appropriate molecular weight equivalence. β-Actin protein was used to determine the equal loading of total protein per sample per lane on the Western blot.
(§2) (A) After 72 hr treatment with WS65, an anti-Nodal inhibitory antibody, there is a 94% reduction in Nodal protein expression and 55% reduction in the ABCA1 protein expression. […] Similar treatment with WS65 results in a 55% decrease in Nodal protein expression and 38% decrease in ABCA1 protein expression while treatment with both CVM-1125 and WS65 for 72 hr appears to synergistically reduce the expression of Nodal protein by 81% and ABCA1 protein by 99%.

ABCA1 protein = assay: Western blot of ABCA1 protein expression in SK-MEL28 melanoma cells; assay type: cell-based, human; conditions: 72 hours treatment
Protocol: as §1, §2

Nodal = Nodal in experimental TNBC models after doxorubicin; conditions: three experimental TNBC models expressing high levels of Nodal

| Structure (SMILES) | reduced Nodal protein expression (Nodal protein [1]) | decrease in Nodal protein expression (Nodal protein [2]) | decrease in ABCA1 protein expression (ABCA1 protein) | effect on the Nodal target (Nodal) |
| --- | --- | --- | --- | --- |
| Nc1ccn([C@@H]2O[C@H](CO)[C@@H](O)[C@@H]2O)c(=O)n1 [Ara-c, reference compound] | 51% |  |  |  |
| COc1ccc2[nH]c(-c3cccc(F)c3)cc(=O)c2c1O [CVM-1125] | 38% | 19% | 14% |  |
| COc1cccc2c1C(=O)c1c(O)c3c(c(O)c1C2=O)C[C@@](O)(C(=O)CO)C[C@@H]3O[C@H]1C[C@H](N)[C@H](O)[C@H](C)O1 [doxorubicin] |  |  |  | did not effectively diminish |
